Laboratory results: patent publication US20070202141A1, “Synthetic Aggregation Pheromone For Manipulating The Behaviour Of Codling Moth, Cydia Pomonella, Larvae” (PHERO TECH INC., priority 2004, published 2007)

Test system: female Mastrus ridibundus antenna
Experiment: coupled gas chromatographic-electroantennographic detection (GC-EAD)
Settings: Porapak Q extract of cocoon-spinning larvae; FIG. 2
Source text: Aliquots of 20 CSLHE of Porapak Q-captured volatiles were subjected to analysis by coupled gas chromatographic-electroantennographic detection (GC-EAD) (Arm et al. 1975) using an antenna of Mastrus ridibundus, a specialist parasitic wasp of C. pomonella prepupae, as the electroantennographic detector. Using antennae from female M. ridibundus, instead of C. pomonella larvae, in these analyses was necessary because the antennae of C. pomonella larvae are too small for electrophysiolocial studies. It was also justified because host-seeking female M. ridibundus respond to the pheromone produced by cocoon-spinning C. pomonella larvae. In these GC-EAD analyses, 10 components (8 visible in FIG. 2) elicited responses from M. ridibundus antennae.
FIG. 2 illustrates flame ionization detector (FID) and electroantennographic detector (EAD: female Mastrus ridibundus antenna) responses to 10 CSLHE of Porapak Q extract. Chromatography: Hewlett Packard (HP) 5890A gas chromatograph equipped with a fused silica column (30 m×0.32 mm ID) coated with DB-23 (J & W Scientific, Folsom, Calif. 95630, USA); linear flow velocity of carrier gas: 35 cm/sec; injector and FID detector temperature: 240° C.; temperature program: 1 min at 50° C., 10° C./min to 220° C. […]

C=C(C)C1CC=C(C)CC1 (single isomer, unassigned; (+)) [(+)-limonene]
electroantennographic detector (EAD) response: not antenally active
